According to patent publication US10730881B2, “Fused pyrimidine derivatives” (Hoffmann-La Roche Inc., priority 2016, dated 2020):

Molecular target: γ-secretase (Homo sapiens, UniProt P49768)
Test: Cellular γ-secretase assay (inhibition of Aβ42 secretion, AlphaLisa)
Format: cell-based
Settings: human neuroglioma H4 cells overexpressing human APP695 Swedish double mutation, 24 hr compound incubation
Description: Human neuroglioma H4 cells overexpressing human APP695 with the Swedish double mutation (K595N/M596L) were plated at 30,000 cells/well/100 μl in 96-well plates in IMDM media containing 10% FCS, 0.2 mg/l Hygromycin B and incubated at 37° C., 5% CO2. 3-4 hr post plating, compounds are a diluted in media and 50 μl is added as 1.5-fold concentrate to achieve the final concentration. Compound incubation is performed for 24 hr. Final doses typically range from 4 μM down to 0.0013 μM in half-log steps resulting in a eight point dose response curve. Appropriate controls using vehicle only and reference compound were applied to this assay. The final concentration of Me2SO was 0.4%. After incubation at 37° C., 5% CO2, the supernatant was subjected to quantification of secreted Aβ42 by the means of an AlphaLisa assay kit (Human Amyloid beta 1-42 Kit: Cat # A[…], Perkin Elmer). 20 μl of the cell culture supernatant was transferred to an assay plate. […] The assay plate was then read on a Paradigm AlphaLisa Reader using the build-in program with excitation at 680 nm and emission at 570 nm. The measured signals were then used to calculate IC50 values for inhibition of Aβ42 secretion by nonlinear regression fit analysis using XLfit 5.3 software (IDBS).

In the case of CNc1nc(N[C@@H]2[C@@H]3CC[C@H]2CN(c2cc(C)ncn2)C3)nc2c1C(C)(C)CN2C1CC(F)(F)C1 [Example 13, 7-(3,3-Difluorocyclobutyl)-N4,5,5-trimethyl-N2-((1R,5S,8s)-3-(6-methylpyrimidin-4-yl)-3-azabicyclo[3.2.1]octan-8-yl)-6,7-dihydro-5H-pyrrolo[2,3-d]pyrimidine-2,4-diamine], the EC50 is reported as 36 nM.
